From ChEMBL document CHEMBL3507680, “University of Dundee, Gates Library screen for HepG2 cell viability”

Test: Human HepG2 cell viability assay in 384 well format
Assay type: toxicity, cell-based
Set-up: dose 125 nL, time 70.5 hour; cytotoxicity at 70.5 h: concentration not given beside the values
Details: HepG2 cells, read-out: Inhibition

SMILES | cytotoxicity at 70.5 h [%]
c1ncc2c(n1)CN(CC1CCCCO1)CC2 (stereo not drawn) | 6.75
COc1ccc(-c2nnc([C@H]3CCN(CC4CC4)C3)o2)cc1 | 2.78
CN1CCOC[C@H]1c1nc(-c2ccc(F)cc2F)c[nH]1 | -0.919
c1cc(-c2c[nH]c([C@@H]3COCCN3C3CCOCC3)n2)ccn1 | -0.86
CC1=C[C@@H](CC#N)[C@H](C(C)C)C[C@H]1CC(=O)N1CCN(C)CC1 | 13.1
COCCOc1ccnc(-c2noc([C@@H]3CCCN3CC(C)(C)C)n2)c1 | 2.83
c1ccc2c(Cc3nnc([C@H]4CCN(C5CCCCC5)C4)o3)c[nH]c2c1 | -0.596
O=S(=O)(NC[C@H]1C[C@@H]2CCN1C[C@@H]2CN1CCCC1)c1ccc(Cl)cc1 | 17
Cn1cncc1-c1nnc([C@H]2CCN(CC(C)(C)C)C2)o1 | 14
CN1CC[C@H](c2nnc(-c3cncn3C)o2)C1 | -0.523
c1cncc(-c2nnc([C@H]3CCN(CC4CCCCC4)C3)o2)c1 | -6.55
Fc1ccc(OCc2nnc([C@H]3CCN(Cc4cccnc4)C3)o2)cc1 | -6.19
CC(C)CCN1CC[C@H](c2nnc(Cc3c[nH]c4ccccc34)o2)C1 | 1.15
c1ccc2c(Cc3nnc([C@H]4CCN(CC5CC5)C4)o3)c[nH]c2c1 | -0.383
CN1C(=O)CO[C@H](c2ccc(NC(=O)Nc3ccccc3)cc2)[C@H]1CO | -7.02
F[C@@H]1CN(CC2CC2)C[C@@H]1OCc1nc2cnccc2[nH]1 | -0.16
F[C@@H]1CN(Cc2ccccc2)C[C@@H]1OCc1nc2cnccc2[nH]1 | 13.9
COc1ccccc1CN1C[C@@H](F)[C@@H](OCc2nc3ccccc3[nH]2)C1 | -0.935
CCNC(=O)NC[C@H]1COCc2nc3cc(OC)ccc3n21 | -10.9
Cc1cccc2c1nc1n2[C@@H](CNC2CCCCC2)COC1 | 8.3
O=C(C1CCOCC1)N1C[C@@H](F)[C@@H](OCc2nc3cc(F)ccc3[nH]2)C1 | -2.48
Cc1cc2nc(CO[C@H]3CN(C4CCN(C)CC4)C[C@H]3F)[nH]c2cc1C | -4.5

SMILES | cytotoxicity at 70.5 h [%]
O=C(NC[C@H]1COCc2nc3cc(F)ccc3n21)c1cccnc1 | -2.79
Cc1ccc2[nH]c(CO[C@H]3CN(c4ccc(C#N)cn4)C[C@H]3F)nc2c1 | -3.04
CC(=O)N1CCC(N2CC[C@H](c3nc4cc(F)ccc4o3)C2)CC1 | 0.135
COC(=O)[C@@H]1Cc2ncn(C)c2CN1S(=O)(=O)c1ccc(OC)cc1 | -3.58
CC(=O)c1c(C)nn(CC(=O)N2Cc3cnc(C(C)(C)C)nc3C2)c1C | -5.26
COCCOCC(=O)N1CCC(O)(c2ccc3nc(C)ccc3c2)CC1 | -5.95
CCCc1cc(C(=O)N(C)Cc2cnn(-c3cccc(OC)c3)c2)[nH]n1 | -6.08
CN(Cc1cc(C2CC2)on1)C(=O)CN1C(=O)OC(C)(C)C1=O | 0.377
OC[C@H]1CN(Cc2c(Cl)cccc2Cl)C[C@H]1CN1CCCCC1 | 7.58
Fc1ccccc1CN1CCCC(NC2CCOCC2)C1 (stereo not drawn) | -9.48
CCc1nc(C)sc1CN1C[C@@H](C)[C@@](C)(O)C1 | -11.2
COc1ccccc1-n1cc(C(=O)NCCCn2nc(C)nc2C)cn1 | -9.68
COCCN1CCCC2(CCN(c3ncc(Cl)cc3Cl)C2)C1=O (stereo not drawn) | -11
Cc1cc(C(F)(F)F)nc(CCNc2nc(C)nc3c2cnn3C)n1 | -4.44
Cc1nccn1C1(C(=O)O)CCN(Cc2ccc3nsnc3c2)CC1 | -7
COc1ccc(C(C(=O)O)N2CCC(O)(c3cccnc3)CC2)cc1Cl (stereo not drawn) | -9.89
COCCN1CC(C(=O)N(C)Cc2csc(C)n2)CC1=O (stereo not drawn) | 9.18
CC1=CCN(C(=O)Nc2ccccc2N2CCOC2=O)CC1 | 0.848
CCc1ncc(C(=O)NCCN(C)S(C)(=O)=O)cn1 | 17.2
CC(C)N(C)CC(=O)N1CCCC(c2ccc(C(=O)O)cc2)C1 (stereo not drawn) | -5.3
COc1nc2c(cc1C(=O)N1C[C@H](N)C[C@H]1C(=O)NC(C)C)CCC2 | -4.1
O=C(c1ccc(F)c(Cl)c1)N1C[C@@H]2CC[C@H](C1)N(Cc1ccccc1)C2 | -5.41

SMILES | cytotoxicity at 70.5 h [%]
CN(CCO)Cc1nnc(C2CCN(C(=O)C(C)(C)C)CC2)n1C | -4.92
COc1cccc(N2CCN(C(=O)C(O)c3cccc(Cl)c3)CC2=O)c1 (stereo not drawn) | 6.54
Cn1ncc2c(N3CCN(C(N)=O)CC3)nc(C3CCCC3)nc21 | 16.3
COc1ccc(C2CC(=O)Nc3c2nc2n3CCCC2)cc1OC (stereo not drawn) | 8.63
CSc1cccc(CN(C)C(=O)C2CC(=O)N(CCN(C)C)C2)c1 (stereo not drawn) | 5.8
CCCN(C)C(=O)c1ccc2c(c1)[nH]c(=O)n2CCOCC | 13.7
CSCC[C@H](N)C(=O)NCc1cc2n(n1)CCCN(C(=O)C1CCC1)C2 | -4.43
CC(C)(O)C1CCN(C(=O)Nc2nc(-c3ccccc3)ns2)CC1 | -4.79
CC(=O)N1CCCn2nc(CNS(=O)(=O)N3CCCCCC3)cc2C1 | -10.6
Fc1ccccc1-c1noc2c1CN(CC1CC1)CC2 | -3.89
COc1ccc(C(C(=O)O)N2CCCN(C3CCCC3)CC2)cc1OC (stereo not drawn) | 18.5
O=C(c1ccccn1)N1CCCC(c2nccn2Cc2ccncc2)C1 (stereo not drawn) | -4.69
O=C(CCc1cc2n(n1)CCCN(C(=O)c1cccnc1)C2)NC1CC1 | -2.07
CCn1ccnc1CN1CCC(CNC(=O)c2ccc(C)nc2)C1 (stereo not drawn) | -9.04
O=C(c1cc(=O)[nH]c(=O)[nH]1)N1CCCCC1c1ccc(F)cc1 (stereo not drawn) | -6.94
COc1ccccc1OCc1cc(C(=O)N2CC(O)C2)n[nH]1 | -4.48
CNc1nc2c(c(C(=O)N3CCCC3)n1)CN(Cc1nccn1C)CC2 | -10.9
CSCC(=O)N1C[C@H]2CC[C@@H]1CN(Cc1ccccc1)C2 | -3.17
COCC1CCN(C(=O)c2cccc(S(=O)(=O)NCC3(C)COC3)c2)C1 (stereo not drawn) | -3.93
CC(C)NS(=O)(=O)c1cc(C(=O)O)cc(-c2ccccc2CN(C)C)c1 | -1.54
CC(C)c1ncc(S(C)(=O)=O)c(C2CCCNC2)n1 (stereo not drawn) | -7.47
Clc1ccccc1C1(c2ccnc(-c3ncccn3)n2)CCNCC1 | -12.3

SMILES | cytotoxicity at 70.5 h [%]
CC(C(=O)N1CCCC1)N1CCC(c2nccn2Cc2cscn2)CC1 (stereo not drawn) | -9.41
COC(=O)c1cc(OCC2CCC2)cc(C(=O)N[C@H]2CC[C@H](O)CC2)c1 | 15.3
CCc1ncc2c(n1)CN(C(=O)COC)C2 | -4.18
COc1cccc(CCC2CCCN(C(=O)c3n[nH]c4c3CCC4)C2)c1 (stereo not drawn) | 0.453
CC(CN1CCCC1)C(=O)N1CCC(c2nccn2CC2CC2)CC1 (stereo not drawn) | 12.9
Cc1ccsc1[C@@H]1CCN(C(=O)CCC(=O)N2CCCCCC2)C[C@H]1O | 0.789
CC(C)n1ccnc1C1CCN(C(=O)c2ccccc2)CC1 | 20.7
O=C(CCc1cc(O)no1)N1CCCC(COc2ccc(F)cc2)C1 (stereo not drawn) | -3.78
CCCN1CCN(C(=O)c2cnccn2)[C@H]2CS(=O)(=O)C[C@H]21 | -0.654
O=C(COCc1ccccc1)N1CCC(OCc2cccnc2)CC1 | -3.09
Cc1cccnc1CNCC1(O)CCCN(CC2CCCCC2)C1=O (stereo not drawn) | -7.77
CCc1cc(N[C@H]2CC[C@H](O)CC2)n2nc(C)c(C)c2n1 | -0.423
Cc1ccc(OC2(C(=O)O)CCN(C(=O)c3ccc(F)cc3)CC2)cn1 | -7.2
CC(C)c1ncc(CN2C[C@@H](CN3CCC(CO)CC3)[C@@H](CO)C2)cn1 | -6.31
Nc1nc2c(c(=O)[nH]1)CCN(C(=O)c1cccc3nccnc13)C2 | -13.2
CC(=O)c1ccc(N2CCCC(CO)(CCOc3ccccc3)C2)nc1 (stereo not drawn) | -13.1
CC(C)c1nccn1CCCNC(=O)c1ccc(-c2cncnc2)nc1 | -9.84
NC(=O)c1cccc(CC2CCN(C(=O)CCCN3CCOCC3)C2)c1 (stereo not drawn) | -4.93
Nc1nccc(NCc2cc3n(n2)CCCN(C2CCCCC2)C3)n1 | -1.68
Cc1nc(CN2CCCC(Cn3cc(CCO)nn3)C2)c[nH]1 (stereo not drawn) | -1.03
Cc1ccccc1N1CCCN(C(=O)CCCS(N)(=O)=O)CC1 | 15.2
Cc1nc2c(c(N3CC=CC3)n1)CCN(Cc1ccoc1)CC2 | -2.75

SMILES | cytotoxicity at 70.5 h [%]
Cc1nccn1CCC1CCCCN1Cc1ccncc1 (stereo not drawn) | 3.75
O=C(O)c1coc(COc2cccc(F)c2)n1 | -4.11
COc1ccc(F)c(CN2CCC3(CCC(=O)N(CC(N)=O)C3)CC2)c1 | 5.8
CN(C)C(=O)NCc1cc2n(n1)CCN(C[C@H]1[C@@H]3CNC[C@@H]31)C2 | 15.7
CC(C)n1ccnc1C1CCN(Cc2ccc(Cl)s2)CC1 | -8.66
CCC(=O)N1CC[C@@H](c2ccc3ccccc3c2)[C@H](O)C1 | -10.5
Cn1c(CN2CCOCC2)nnc1C1CCN(C(=O)C2CCCC2)CC1 | 2.41
CCc1cnc(C)nc1NCCN1CCCCCC1 | -11.6
Cc1ncccc1OCC(=O)N1CCN[C@H]2CS(=O)(=O)C[C@H]21 | -11.5
CC(=O)N1CCN(c2cc(-c3ccccc3)nc3c(C)c(C)nn23)CC1 | 0.357
CC1CCN(S(=O)(=O)NCC2CCOc3ccccc3C2)CC1 (stereo not drawn) | -7.61
CC(C)C1CN(c2ncccn2)CCC(=O)N1Cc1ccc(F)cc1 (stereo not drawn) | 1.56
CC(=O)Nc1cccc(C(=O)Nc2cnc3n2CCCC3)c1 | -5.75
COc1ccccc1CN(C)c1nccc(-c2cn(C)nc2C)n1 | -8.86
O=C1CC2(CCN(CC3CCOC3)CC2)CN1Cc1cc(F)cc(F)c1 (stereo not drawn) | -6.96
CC[C@@]1(O)CCN(C(=O)c2ccc(SC)cc2)C[C@H]1O | 0.602
Cc1cccc2[nH]c(C3CCN(C(=O)c4ccnn4C)CC3)nc12 | 0.0948
Cc1cc(=O)[nH]c(NCCNC(=O)C(c2ccc(F)cc2)N(C)C)n1 (stereo not drawn) | 11.9
CCC[C@@H]1CN(S(=O)(=O)c2ccc(C)c(F)c2)C[C@H]1N(C)C | 0.773
CCCOCCCNc1nccc(-c2cn(C)nc2C)n1 | -4.32
